Assay results as given in US8741940B2, “Microbicidal composition” (Rohm and Haas Company, priority 2005, dated 2014).
Counter-ions that a name gives are not always drawn. Like-named read-outs stand apart in the source and are kept apart here.

Experiments:
Assay type in all cases: cell-based
[1] = system: Escherichia coli (E. coli—ATCC #8739); assay: Synergy test, microtiter plate high resolution MIC assay, bacterium in M9GY medium; set-up: key to SI (synergy index): SI = Qa/QA + Qb/QB; >1 antagonism, lower SI = greater synergy; Qa (First Component A) / Qb (Second Component B): unit: ppm
Protocol: (§1) When the sum of Qa/QA and Qb/QB is greater than one, antagonism is indicated. […] The lower the SI, the greater the synergy shown by that particular mixture. The minimum inhibitory concentration (MIC) of a microbicide is the lowest concentration tested under a specific set of conditions that prevents the growth of added microorganisms.
(§2) Synergy tests were conducted using standard microtiter plate assays with media designed for optimal growth of the test microorganism. Minimal salt medium supplemented with 0.2% glucose and 0.1% yeast extract (M9GY medium) was used for testing bacteria; Potato Dextrose Broth (PDB medium) was used for testing yeast and mold. In this method, a wide range of combinations of microbicides and other personal care raw materials was tested by conducting high resolution MIC assays in the presence of various concentrations of BBIT or MBIT. High resolution MICs were determined by adding varying amounts of microbicide to one column of a microtitre plate and doing subsequent […] dilutions using an automated liquid handling system to obtain a series of endpoints ranging from 2 ppm to 10,000 ppm active ingredient.
(§3) The bacteria were used at a concentration of about 5 ×10^6 bacteria per mL and the yeast and mold at 5×10^5 fungi per mL. These microorganisms are representative of natural contaminants in many consumer and industrial applications. […] (yeast and mold) or 30° C. (bacteria).
(§4) In each test, First Component (A) was BBIT and the Second Component (B) was the other commercial microbicide.
(§5) In each test, First Component (A) was MBIT and the Second Component (B) was the other commercial microbicide.

[2] = system: Candida albicans (C. albicans—ATCC 10231); assay: Synergy test, microtiter plate high resolution MIC assay, yeast in PDB medium; set-up: key to SI (synergy index): SI = Qa/QA + Qb/QB; >1 antagonism, lower SI = greater synergy; Qb (Second Component B) / Qa (First Component A): unit: ppm
Protocol: as §1, §2, §3, §4, §5

[3] = system: Aspergillus niger (A. niger—ATCC 16404); assay: Synergy test, microtiter plate high resolution MIC assay, mold in PDB medium; set-up: key to SI (synergy index): SI = Qa/QA + Qb/QB; >1 antagonism, lower SI = greater synergy; Qb (Second Component B) / Qa (First Component A): unit: ppm
Protocol: as §1, §2, §3, §4, §5

[4] = C. albicans 10231, PDB, 24 hours
[5] = E. coli 8739, M9GY, 24 hours, alone where Qa = 0, otherwise in the mixture
[6] = A=MBIT, B=Benzalkonium chloride (Hyamine 3500), E. coli 8739 - M9GY, 24 hours
[7] = A=MBIT, B=Benzalkonium chloride (Hyamine 3500), C. albicans 10231 - PDB, 24 hours
[8] = A=MBIT, B=Benzalkonium chloride (Hyamine 3500), A. niger 16404 - PDB, 4 days

## ClC=CC[N+]12CN3CN(CN(C3)C1)C2.[Cl-] [Quaternium-15, 1-(3-chloroallyl)-3,5,7-triaza-1-azoniaadamantane chloride]
[1]; E. coli 8739, M9GY, 24 hours
  SI (synergy index): 1.00
[1]; E. coli 8739 - M9GY, 72 hours, BBIT with Quaternium-15
  SI: 1.00
[1]; Escherichia coli, ATCC8739, 24 h, read-out: Qb (concentration of second component producing the end point, MIC)
  MIC: 50 µg/mL
[2]; [4]
  SI (synergy index): 1.00
[2]; C. albicans 10231 - PDB, 24 hours, BBIT with Quaternium-15
  SI: 1.00
[2]; Candida albicans, ATCC10231, 24 h, read-out: Qb (concentration of second component producing the end point, MIC)
  MIC: 500 µg/mL
[3]; A. niger 16404, PDB, 3 days
  SI (synergy index): 1.00
[3]; A. niger 16404 - PDB, 4 days, BBIT with Quaternium-15
  SI: 1.00
[3]; Aspergillus niger, ATCC16404, 72 h, read-out: Qb (concentration of second component producing the end point, MIC)
  MIC: 3000 µg/mL

## O=C([O-])c1ccccc1.[Na+] [Sodium benzoate]
[1]; E. coli 8739, M9GY, 24 hours
  SI (synergy index): 1.00
[1]; [5]
  Qb (concentration of second component producing the end point, MIC): 10000 ppm
[1]; E. coli 8739 - M9GY, 24 hours, BBIT with Sodium benzoate
  SI: 1.00
[2]; C. albicans 10231, PDB, 48 hours
  SI (synergy index): 1.00
[2]; C. albicans 10231, PDB, 48 hours, alone where Qa = 0, otherwise in the mixture
  Qb (concentration of second component producing the end point, MIC): 2000 ppm
[2]; C. albicans 10231 - PDB, 48 hours, BBIT with Sodium benzoate
  SI: 1.00
[3]; A. niger 16404, PDB, 7 days
  SI (synergy index): 1.00
[3]; A. niger 16404, PDB, 7 days, alone where Qa = 0, otherwise in the mixture
  Qb (concentration of second component producing the end point, MIC): 10000 ppm
[3]; A. niger 16404 - PDB, 7 days, BBIT with Sodium benzoate
  SI: 1.00

## O=C([O-])CC(O)(CC(=O)[O-])C(=O)[O-].[Na+].[Na+].[Na+] [Sodium citrate]
[1]
  Qb (Second Component B): 20000
  Qb (concentration of second component producing the end point, MIC): 20000 ppm
[2]
  Qb (Second Component B): 10000
  Qb (concentration of second component producing the end point, MIC): 10000 ppm
[3]
  Qb (Second Component B): 10000
  Qb (concentration of second component producing the end point, MIC): 10000 ppm

## CC(=O)C1C(=O)C=C(C)OC1=O (stereo not drawn) [dehydroacetic acid, sodium salt]
[1]; E. coli 8739 - M9GY, 24 hours, BBIT with SDHA
  SI: 1.00
[2]; C. albicans 10231 - PDB, 24 hours, BBIT with SDHA
  SI: 1.00
[3]; A. niger 16404 - PDB, 7 days, BBIT with SDHA
  SI: 1.00

## Benzalkonium chloride
[1]; [6]
  Qb (Second Component B): 10
  SI (synergy index): 1.00
[1]; E. coli 8739, M9GY, 48 hours, 30° C.
  MIC of the component acting alone (QA / QB): 3 ppm
[2]; [7]
  Qb (Second Component B): 60
  SI (synergy index): 1.00
[2]; C. albicans 10231, PDB, 24 hours, 25° C.
  MIC of the component acting alone (QA / QB): 60 ppm
[3]; A. niger 16404, PDB, 7 days, 25° C.
  MIC of the component acting alone (QA / QB): 200 ppm
[3]; [8]
  Qb (Second Component B): 200
  SI (synergy index): 1.00

## Hexylene glycol
[1]; E. coli 8739, M9GY, 24 hours
  SI (synergy index): 1.00
[1]; [5]
  Qb (concentration of second component producing the end point, MIC): 20000 ppm
[1]; E. coli 8739 - M9GY, 24 hours, BBIT + hexylene glycol
  SI: 1.00
[1]; E. coli 8739 - M9GY, 24 hours, hexylene glycol alone (Qa 0) or in mixture with BBIT
  Qb (Second Component B = Hexylene glycol): 20000
[2]; [4]
  SI (synergy index): 1.00
[2]; C. albicans 10231, PDB, 24 hours, alone where Qa = 0, otherwise in the mixture
  Qb (concentration of second component producing the end point, MIC): 20000 ppm
[2]; C. albicans 10231 - PDB, 24 hours, BBIT + hexylene glycol
  SI: 1.00
[2]; C. albicans 10231 - PDB, 24 hours, hexylene glycol alone (Qa 0) or in mixture with BBIT
  Qb (Second Component B = Hexylene glycol): 20000
[3]; A. niger 16404, PDB, 3 days
  SI (synergy index): 1.00
[3]; A. niger 16404, PDB, 3 days, alone where Qa = 0, otherwise in the mixture
  Qb (concentration of second component producing the end point, MIC): 20000 ppm
[3]; A. niger 16404 - PDB, 3 days, BBIT + hexylene glycol
  SI: 1.00
[3]; A. niger 16404 - PDB, 3 days, hexylene glycol alone (Qa 0) or in mixture with BBIT
  Qb (Second Component B = Hexylene glycol): 20000
